Measured values from patent US20250129031A1, “1,2,3-TRIAZOLE CARBONYL SULFONYLAMIDE COMPOUNDS AND USE THEREOF” (PI INDUSTRIES LTD., priority 2022, published 2025).

test system: Meloidogyne incognita; assay: Meloidogyne incognita test: gall rating on cucumber plants in pots after soil application; type: in vivo; design: key: 0: no galls; 1: very few small galls; 2: numerous small galls; 3: numerous small galls of which some are grown together; 4: numerous small and some big galls; 25% of roots severely galled; 6: 50% of roots severely galled; 75% of roots severely galled; 8: no healthy roots but plant is still green; 9: roots rotting and plant dying; 10: plant and roots dead; conditions: 1000 ppm applied to soil inoculated with 5000 eggs & J2s; cucumber seedlings; rated 30 days after application; 0-10 scale (Zeck 1971); untreated check up to 8
Experimental: Meloidogyne incognita Test:
The trial pots were filled with soil containing a mixture of sand:soil:cocopeat in a ratio of 1:1:1. To the soil of each pot 5 mL of a nematode suspension (Meloidogyne incognita, mix of 5000 eggs & J2s) was added. One hour later the respective test compound at the stated concentration was applied to each pot. 10 days old cucumber seedlings were transplanted into the pots one day after the application. The cucumber plants were allowed to grow at a temperature of 27° C. under greenhouse conditions. The evaluation of the gall rating was recorded 30 days after the application. The plants were carefully uprooted and the roots were thoroughly washed. The gall rating was done on a 0-10 scale as described by Zeck (1971) and shown below: • 0=no galls • 1=very few small galls • 2=numerous small galls • 3=numerous small galls of which some are grown together • 4=numerous small and some big galls • 5=25% of roots severely galled • 6=50% of roots severely galled • 7=75% of roots severely galled • 8=no healthy roots but plant is still green • 9=roots rotting and plant dying • 10=plant and roots dead

**Q.** How did the gall rating scale turn out when `Cc1c(C(=O)NS(=O)(=O)c2cc(C(F)(F)F)ccc2Br)nnn1-c1ccc(C#N)cc1Cl` [Compound 458] was run?
**A.** 4

**Q.** With `Cc1ccccc1S(=O)(=O)NC(=O)c1nnn(-c2ccc(C#N)cc2Cl)c1C` [Compound 459] as the molecule, how does the gall rating scale read?
**A.** 4

**Q.** How did the gall rating scale turn out when `Cc1cc(S(=O)(=O)NC(=O)c2nnn(-c3ccc(C#N)cc3Cl)c2C)c(C)cc1Cl` [Compound 460] was run?
**A.** 4

**Q.** Which gall rating scale does the source give for `Cc1c(C(=O)NS(=O)(=O)c2cc(Cl)ccc2F)nnn1-c1ccc(C#N)cc1Cl` [Compound 497] here?
**A.** 4

**Q.** With `Cc1c(C(=O)NS(=O)(=O)c2ccc(Cl)c(F)c2)nnn1-c1ccc(C#N)cc1Cl` [Compound 499] as the molecule, how does the gall rating scale read?
**A.** 4

**Q.** With `Cc1c(Cl)cccc1S(=O)(=O)NC(=O)c1nnn(-c2ccc(C#N)cc2Cl)c1C` [Compound 513] as the molecule, how does the gall rating scale read?
**A.** 4

**Q.** `Cc1ccc(F)cc1S(=O)(=O)NC(=O)c1nnn(-c2ccc(C#N)cc2Cl)c1C` [Compound 516, 1-(2-chloro-4-cyanophenyl)-N-((5-fluoro-2-methylphenyl)sulfonyl)-5-methyl-1H-1,2,3-triazole-4-carboxamide] was tested. Which gall rating scale did it give?
**A.** 4

**Q.** Which gall rating scale does the source give for `Cc1ccc(C)c(S(=O)(=O)NC(=O)c2nnn(-c3ccc(C#N)cc3F)c2C(F)(F)F)c1` [Compound 536, 1-(4-cyano-2-fluorophenyl)-N-((2,5-dimethylphenyl)sulfonyl)-5-(trifluoromethyl)-1H-1,2,3-triazole-4-carboxamide] here?
**A.** 4

**Q.** Which gall rating scale does the source give for `COc1ccc(Cl)c(S(=O)(=O)NC(=O)c2nnn(-c3ccc(C#N)cc3F)c2C(F)(F)F)c1` [Compound 538, N-((2-chloro-5-methoxyphenyl)sulfonyl)-1-(4-cyano-2-fluorophenyl)-5-(trifluoromethyl)-1H-1,2,3-triazole-4-carboxamide] here?
**A.** 4

**Q.** For `N#Cc1ccc(-n2nnc(C(=O)NS(=O)(=O)c3ccccc3Cl)c2C(F)(F)F)c(F)c1` [Compound 563, N-((2-chlorophenyl)sulfonyl)-1-(4-cyano-2-fluorophenyl)-5-(trifluoromethyl)-1H-1,2,3-triazole-4-carboxamide], which gall rating scale is on record?
**A.** 4

**Q.** How did the gall rating scale turn out when `COc1ccc(Cl)cc1S(=O)(=O)NC(=O)c1nnn(-c2ccc(OC(F)(F)F)cc2Cl)c1C` [Compound 586] was run?
**A.** 4

**Q.** How did the gall rating scale turn out when `COc1ccc(C)cc1S(=O)(=O)NC(=O)c1nnn(-c2ccc(OC(F)(F)F)cc2Cl)c1C` [Compound 587] was run?
**A.** 4

**Q.** Which gall rating scale does the source give for `Cc1ccc(F)cc1S(=O)(=O)NC(=O)c1nnn(-c2ccc(OC(F)(F)F)cc2Cl)c1C` [Compound 588] here?
**A.** 4

**Q.** `COc1ccc(C)cc1S(=O)(=O)NC(=O)c1nnn(-c2ccc(OC(F)(F)F)cc2Cl)c1C(F)(F)F` [Compound 590] was tested. Which gall rating scale did it give?
**A.** 4

**Q.** For `Cc1c(Cl)cccc1S(=O)(=O)NC(=O)c1nnn(-c2ccc(OC(F)(F)F)cc2Cl)c1C(F)(F)F` [Compound 596, N-((3-chloro-2-methylphenyl)sulfonyl)-1-(2-chloro-4-(trifluoromethoxy)phenyl)-5-(trifluoromethyl)-1H-1,2,3-triazole-4-carboxamide], which gall rating scale is on record?
**A.** 4

**Q.** How did the gall rating scale turn out when `Cc1ccc(F)cc1S(=O)(=O)NC(=O)c1nnn(-c2ccc(OC(F)(F)F)cc2Cl)c1C(F)(F)F` [Compound 597] was run?
**A.** 4

**Q.** With `COc1ccc(Cl)cc1S(=O)(=O)NC(=O)c1nnn(-c2ccc(Cl)cc2Cl)c1C(F)(F)F` [Compound 598] as the molecule, how does the gall rating scale read?
**A.** 4

**Q.** For `COc1ccc(C)cc1S(=O)(=O)NC(=O)c1nnn(-c2ccc(Cl)cc2Cl)c1C(F)(F)F` [Compound 599], which gall rating scale is on record?
**A.** 4

**Q.** How did the gall rating scale turn out when `N#Cc1ccc(-n2nnc(C(=O)NS(=O)(=O)c3cc(Cl)c(F)cc3F)c2C(F)(F)F)c(F)c1` [Compound 610, N-((5-chloro-2,4-difluorophenyl)sulfonyl)-1-(4-cyano-2-fluorophenyl)-5-(trifluoromethyl)-1H-1,2,3-triazole-4-carboxamide] was run?
**A.** 4

**Q.** Which gall rating scale does the source give for `COc1ccc(Cl)c(S(=O)(=O)NC(=O)c2nnn(-c3ccc(Cl)cc3F)c2C(F)(F)F)c1` [Compound 630] here?
**A.** 4

**Q.** Which gall rating scale does the source give for `O=C(NS(=O)(=O)c1cc(C(F)(F)F)ccc1Cl)c1nnn(-c2ccc(Cl)cc2F)c1C(F)(F)F` [Compound 631] here?
**A.** 4

**Q.** `O=C(NS(=O)(=O)c1ccccc1C(F)(F)F)c1nnn(-c2ccc(Cl)cc2F)c1C(F)(F)F` [Compound 640] was tested. Which gall rating scale did it give?
**A.** 4

**Q.** `Cc1c(C(=O)NS(=O)(=O)c2ccccc2C(F)(F)F)nnn1-c1cc(Cl)c(Cl)cc1Cl` [Compound 657] was tested. Which gall rating scale did it give?
**A.** 4

**Q.** `COc1ccc(Cl)c(S(=O)(=O)NC(=O)c2nnn(-c3ccc(OC(F)F)cc3Cl)c2C)c1` [Compound 664] was tested. Which gall rating scale did it give?
**A.** 4

**Q.** How did the gall rating scale turn out when `Cc1c(C(=O)NS(=O)(=O)c2cc(C(F)(F)F)ccc2Cl)nnn1-c1ccc(OC(F)F)cc1Cl` [Compound 665] was run?
**A.** 4

**Q.** For `Cc1c(C(=O)NS(=O)(=O)c2cc(Cl)ccc2Cl)nnn1-c1ccc(OC(F)F)cc1Cl` [Compound 666], which gall rating scale is on record?
**A.** 4

**Q.** For `Cc1ccc(C)c(S(=O)(=O)NC(=O)c2nnn(-c3ccc(OC(F)F)cc3Cl)c2C)c1` [Compound 667], which gall rating scale is on record?
**A.** 4

**Q.** For `Cc1c(C(=O)NS(=O)(=O)c2ccccc2F)nnn1-c1ccc(OC(F)F)cc1Cl` [Compound 668], which gall rating scale is on record?
**A.** 4

**Q.** With `Cc1c(C(=O)NS(=O)(=O)c2ccccc2C(F)(F)F)nnn1-c1ccc(OC(F)F)cc1Cl` [Compound 669] as the molecule, how does the gall rating scale read?
**A.** 4

**Q.** `Cc1ccc(C)c(S(=O)(=O)NC(=O)c2nnn(-c3ccc(C(F)(F)F)cc3Cl)c2C)c1` [Compound 670] was tested. Which gall rating scale did it give?
**A.** 4

**Q.** How did the gall rating scale turn out when `Cc1c(C(=O)NS(=O)(=O)c2ccccc2Cl)nnn1-c1ccc(OC(F)F)cc1Cl` [Compound 671] was run?
**A.** 4

**Q.** Which gall rating scale does the source give for `Cc1c(C(=O)NS(=O)(=O)c2ccc(F)cc2F)nnn1-c1ccc(OC(F)F)cc1Cl` [Compound 672] here?
**A.** 4

**Q.** `Cc1c(C(=O)NS(=O)(=O)c2cc(F)cc(F)c2)nnn1-c1ccc(OC(F)F)cc1Cl` [Compound 673] was tested. Which gall rating scale did it give?
**A.** 4

**Q.** `Cc1c(C(=O)NS(=O)(=O)c2cc(F)ccc2F)nnn1-c1ccc(OC(F)F)cc1Cl` [Compound 674] was tested. Which gall rating scale did it give?
**A.** 4

**Q.** Which gall rating scale does the source give for `Cc1c(C(=O)NS(=O)(=O)c2c(F)cc(F)cc2F)nnn1-c1ccc(OC(F)F)cc1Cl` [Compound 675] here?
**A.** 4

**Q.** How did the gall rating scale turn out when `Cc1c(C(=O)NS(=O)(=O)c2cc(Cl)c(Cl)cc2Cl)nnn1-c1ccc(OC(F)F)cc1Cl` [Compound 676] was run?
**A.** 4

**Q.** With `Cc1c(C(=O)NS(=O)(=O)c2ccc(F)cc2F)nnn1-c1cc(Cl)c(Cl)cc1Cl` [Compound 683] as the molecule, how does the gall rating scale read?
**A.** 4

**Q.** `Cc1c(C(=O)NS(=O)(=O)c2ccccc2C(F)(F)F)nnn1-c1ccc(F)cc1F` [Compound 687] was tested. Which gall rating scale did it give?
**A.** 4

**Q.** How did the gall rating scale turn out when `Cc1c(C(=O)NS(=O)(=O)c2ccccc2Cl)nnn1-c1ccc(F)cc1F` [Compound 689] was run?
**A.** 4

**Q.** Which gall rating scale does the source give for `Cc1c(C(=O)NS(=O)(=O)c2cc(C(F)(F)F)ccc2C(F)(F)F)nnn1-c1ccc(F)cc1F` [Compound 690] here?
**A.** 4

**Q.** How did the gall rating scale turn out when `Cc1c(C(=O)NS(=O)(=O)c2cc(Cl)ccc2F)nnn1-c1ccc(F)cc1F` [Compound 691] was run?
**A.** 4

**Q.** How did the gall rating scale turn out when `O=C(NS(=O)(=O)c1ccc(Cl)cc1Cl)c1nnn(-c2cc(Cl)c(Cl)cc2Cl)c1C(F)(F)F` [Compound 709] was run?
**A.** 4

**Q.** With `O=C(NS(=O)(=O)c1ccccc1C(F)(F)F)c1nnn(-c2ccc(F)cc2F)c1C(F)(F)F` [Compound 736] as the molecule, how does the gall rating scale read?
**A.** 4

**Q.** How did the gall rating scale turn out when `O=C(NS(=O)(=O)c1cc(C(F)(F)F)ccc1Cl)c1nnn(-c2ccc(F)cc2F)c1C(F)(F)F` [Compound 774] was run?
**A.** 4

**Q.** How did the gall rating scale turn out when `Cc1ccccc1S(=O)(=O)NC(=O)c1nnn(-c2ccc(F)cc2F)c1C(F)(F)F` [Compound 776] was run?
**A.** 4
